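Briefly, cells in 96-well plates were exposed to five compound concentrations for 48 h, and endpoints were estimated by linear interpolation. GI50 marks 50% less growth. TGI: total growth inhibition.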
Tests used:
Assay in all cases: DTP human tumour cell line panel, 48 h
OVCAR-4 ovarian = test system: OVCAR-4 ovarian
NCI-H226 lung = test system: NCI-H226 lung
ACHN renal = test system: ACHN renal
HT29 colon = test system: HT29 colon
SNB-19 CNS = test system: SNB-19 CNS
K-562 leukemia = test system: K-562 leukemia
SF-295 CNS = test system: SF-295 CNS
DU-145 prostate = test system: DU-145 prostate
CAKI-1 renal = test system: CAKI-1 renal
SNB-78 CNS = test system: SNB-78 CNS

Structure (SMILES)	TGI (OVCAR-4 ovarian)	TGI (NCI-H226 lung)	TGI (ACHN renal)	TGI (HT29 colon)	TGI (SNB-19 CNS)	TGI (K-562 leukemia)	TGI (SF-295 CNS)	TGI (DU-145 prostate)	TGI (CAKI-1 renal)	TGI (SNB-78 CNS)	GI50 (OVCAR-4 ovarian)	GI50 (NCI-H226 lung)	GI50 (ACHN renal)	GI50 (HT29 colon)	GI50 (SNB-19 CNS)	GI50 (K-562 leukemia)	GI50 (SF-295 CNS)	GI50 (DU-145 prostate)	GI50 (CAKI-1 renal)
NCc1ccc(C(=O)O)cc1	> 100 µM	> 100 µM	> 100 µM	> 100 µM	> 100 µM	> 100 µM	> 100 µM	> 100 µM	> 100 µM										
CCO/N=[N+](\[O-])N(CC)CC		> 100 µM	> 100 µM	> 100 µM	> 100 µM	> 100 µM	> 100 µM		> 100 µM	> 100 µM									
COc1cc(C2c3cc4c(cc3[C@@H](Nc3cccc(C(C)=O)c3)C3COC(=O)[C@H]23)OCO4)cc(OC)c1O (stereo partly specified)	> 100 µM	1.99 µM		6.53 µM	4.79 µM	6.1 µM	1.39 µM		2.13 µM	> 100 µM									
CC[n+]1c(/C=C/c2ccc(N(CCCl)CCCl)cc2)ccc2cc(NC(=O)/C=C/c3ccccc3)ccc21		2.89 µM	> 56.6 µM	1.36 µM	1.67 µM	0.235 µM	7.81 µM	1.64 µM	19.2 µM	16 µM									
ClCc1c(Cl)c(Cl)c(Cl)c(CCl)c1Cl	2.98 µM	7.3 µM	3 µM	3.3 µM	4.23 µM	4.37 µM	27.7 µM	3.99 µM	3.1 µM		1.62 µM	2.53 µM	1.64 µM	1.79 µM	1.94 µM	1.8 µM	9.07 µM	1.98 µM	1.68 µM
CN(C)c1ccc(N=Nc2ccccn2)cc1	> 100 µM	> 100 µM	> 100 µM	> 100 µM	> 100 µM	> 100 µM	> 100 µM	> 100 µM	> 100 µM										
Brc1ccccc1-c1ncc(-c2ccccc2)o1	> 100 µM		> 100 µM	> 100 µM	> 100 µM	> 100 µM	> 100 µM	> 100 µM	> 100 µM										
COc1ccc(-c2cc(N3CCN(c4ccccc4)CC3)c(C#N)c(=O)o2)cc1	15 µM	9.94 µM	> 100 µM	> 100 µM	49.8 µM	> 100 µM	59.5 µM		53.9 µM	59 µM									
COc1ccc(NC(=O)/C(CC2=Nc3ccc([N+](=O)[O-])cc3NC2O)=N\NC(=O)C[N+](C)(C)C)c(OC)c1 (stereo unspecified)	> 100 µM	> 100 µM	> 100 µM	> 100 µM	> 100 µM		> 100 µM	> 100 µM	> 100 µM										
CCOC(=O)/C=C(\C)c1ccc(OC)cc1	> 100 µM	> 100 µM	> 100 µM	> 100 µM	> 100 µM		> 100 µM		> 100 µM	> 100 µM									
CC(C)C[P+](c1ccccc1)(c1ccccc1)c1ccccc1	> 100 µM	> 100 µM	> 100 µM	> 100 µM	> 100 µM	> 100 µM	90.5 µM	> 100 µM	37.8 µM										
C=C1C(=O)OC2C1CC(O)/C(C)=C\CCC1(C)OC21 (stereo unspecified)	> 100 µM		> 100 µM	> 100 µM	> 100 µM		> 100 µM	> 100 µM											
Cc1nc2ccccc2c(=O)[nH]1	> 100 µM	> 100 µM	> 100 µM	> 100 µM	> 100 µM	> 100 µM	> 100 µM			> 100 µM									
N#Cc1c(NC(=S)NC(=O)c2ccccc2)nc2c(c1-c1ccccc1)CCCC2	> 100 µM			> 100 µM	> 100 µM	> 100 µM	> 100 µM	> 100 µM	> 100 µM										
CC(C)(Br)C1(O)CCCN1C(=O)c1ccccc1 (stereo unspecified)			> 100 µM	> 100 µM	> 100 µM	> 100 µM	> 100 µM			> 100 µM									
CCC(C)C(=O)c1c(O)c(C/C=C(\C)CCC=C(C)C)c(O)c2c(C(O)CC)cc(=O)oc12 (stereo unspecified)	10.5 µM	9.11 µM	8.38 µM	3.62 µM	16.2 µM	3.31 µM	7.82 µM		12.1 µM	16.7 µM									
COc1ccc(NC(=O)/C(=C/c2ccc(N(CCC#N)CCC#N)cc2)NC(=O)c2cc([N+](=O)[O-])ccc2Cl)cc1	> 100 µM	> 100 µM	59.5 µM		> 100 µM	> 100 µM	73.2 µM		> 100 µM	> 100 µM									
NCc1ccccc1C1CSCSC1	> 100 µM	> 100 µM	> 100 µM	> 100 µM		> 100 µM	> 100 µM			> 100 µM									
O=[N+]([O-])c1cn[n+]([O-])c2ccccc12		27.3 µM	3.83 µM	35.2 µM	25.2 µM		17.6 µM	3.79 µM	8.1 µM										

— PubChem BioAssay (NCI)
